Molecules are shown by their SMILES. pIC50: −log10 of the molar value.

Test [1] deals with Protease (Human immunodeficiency virus 1, UniProt Q9YQ12). Description: Inhibition of HIV1 protease.
The target in test [2] is T1, Renin (Homo sapiens, UniProt P00797).
T1 sequence (P00797 whole entry): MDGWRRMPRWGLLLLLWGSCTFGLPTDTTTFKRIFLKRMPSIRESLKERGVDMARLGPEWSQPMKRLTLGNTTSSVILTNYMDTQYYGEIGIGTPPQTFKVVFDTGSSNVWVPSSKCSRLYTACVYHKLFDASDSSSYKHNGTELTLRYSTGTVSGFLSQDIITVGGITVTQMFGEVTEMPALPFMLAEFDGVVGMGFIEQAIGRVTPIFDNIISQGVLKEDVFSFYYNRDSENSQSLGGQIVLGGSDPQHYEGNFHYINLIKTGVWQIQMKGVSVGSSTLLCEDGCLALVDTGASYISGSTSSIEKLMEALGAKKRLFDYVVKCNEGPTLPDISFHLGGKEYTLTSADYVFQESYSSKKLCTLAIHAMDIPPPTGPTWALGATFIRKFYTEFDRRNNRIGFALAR
Briefly: Inhibition of renin by fluorimetric assay.

Test [3] in a line: Inhibition of trypsin by fluorimetric assay.
Test [4] is described as follows: Inhibition of HCV NS3/4A protease by fluorimetric assay. Also on record: species or system Hepacivirus hominis.

Sequence of Protease (Q9YQ12 whole entry): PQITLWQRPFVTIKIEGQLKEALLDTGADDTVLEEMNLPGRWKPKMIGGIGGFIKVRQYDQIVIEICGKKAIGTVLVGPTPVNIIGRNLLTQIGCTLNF

Broadly, the pIC50 is −log10 of the IC50, conventionally taken in molar units. A lower pIC50 goes with a large IC50. In the case of `CC(C)[C@H](NC(=O)[C@]12CCC(C)(C)C[C@@H]1C1=CC[C@@H]3[C@@]4(C)CC[C@H](O)C(C)(C)[C@@H]4CC[C@@]3(C)[C@]1(C)CC2)C(=O)O`, the pIC50 in test [1] is 4.97.

In test [1], `C=C(C)[C@@H]1CC[C@]2(C)CC[C@]3(C)[C@@H](CC[C@@H]4[C@@]5(C)CCC(=O)C(C)(C)[C@@H]5CC[C@]43C)[C@H]12` gave a pIC50 below 3.63. In test [1], `C=C(C)[C@@H]1CC[C@]2(C(=O)O)CC[C@]3(C)[C@@H](CC[C@@H]4[C@@]5(C)C=C(O)C(=O)C(C)(C)[C@@H]5CC[C@]43C)[C@H]12` gave a pIC50 of 4.73. Regarding `CC1(C)C(=O)CC[C@]2(C)[C@H]3C(=O)C=C4[C@H]5C[C@@](C)(C(=O)O)CC[C@]5(C)CC[C@@]4(C)[C@]3(C)CC[C@@H]12`, the pIC50 in test [1] is 4.63. On the same count and under the same terms, for `COC(=O)[C@@H](NC(=O)[C@]12CCC(C)(C)C[C@@H]1C1=CC[C@@H]3[C@@]4(C)CC[C@H](O)C(C)(C)[C@@H]4CC[C@@]3(C)[C@]1(C)CC2)C(C)C` the value was 4.61; for `CC1(C)CC[C@]2(CO)CC[C@]3(C)C(=CC[C@@H]4[C@@](C)(CC(=O)O)[C@H](C(C)(C)C(=O)O)CC[C@]43C)[C@H]2C1`, 4.52; for `C=C(C)[C@@H]1CC[C@]2(C)CC[C@]3(C)[C@@H](CC[C@@H]4[C@@]5(C)C=C(O)C(=O)C(C)(C)[C@@H]5CC[C@]43C)[C@H]12`, 4.61. Regarding `CC(C)(C(=O)O)[C@@H]1CC[C@]2(C)[C@H](C(=O)C=C3[C@H]4C[C@@](C)(C(=O)O)CC[C@]4(C)CC[C@]32C)[C@@]1(C)CC(=O)O`, the pIC50 in test [2] is below 2.71; in test [3], below 2.71; in test [1], 5.24; in test [4], below 3.71. In test [1], `COC(=O)[C@H](NC(=O)[C@]12CCC(C)(C)C[C@@H]1C1=CC[C@@H]3[C@@]4(C)CC[C@H](O)C(C)(C)[C@@H]4CC[C@@]3(C)[C@]1(C)CC2)C(C)C` showed a pIC50 of 4.49.

`C=C(C)[C@@H]1CC[C@]2(C(=O)O)CC[C@]3(C)[C@@H](CC[C@@H]4[C@@](C)(CC(=O)O)[C@H](C(C)(C)C(=O)O)CC[C@]43C)[C@H]12`: the pIC50 in test [2] was below 2.70; in test [3], 3.07; in test [1] it was 4.80; in test [4] it was below 3.70. On to `C[C@H]1[C@H](C)CC[C@]2(C(=O)O)CC[C@]3(C)C(=CC[C@@H]4[C@@]5(C)CCC(=O)C(C)(C)[C@@H]5CC[C@]43C)[C@H]12` [URSONIC ACID], for which the pIC50 in test [1] is 4.43. On to `CC1(C)CC[C@]2(C(=O)O)CC[C@]3(C)C(=CC[C@@H]4[C@@]5(C)CC(=O)C(C)(C)[C@@H]5CC[C@]43C)[C@H]2C1`, for which the pIC50 in test [1] was 4.54. In test [1], `CC(C)[C@@H](NC(=O)[C@]12CCC(C)(C)C[C@@H]1C1=CC[C@@H]3[C@@]4(C)CCC(=O)C(C)(C)[C@@H]4CC[C@@]3(C)[C@]1(C)CC2)C(=O)O` had a pIC50 of 4.34. Against the preceding molecule, the pIC50 is 0.20 log units lower. Still for that read-out and setting: for `C[C@@H]1[C@H]2[C@H]3CC[C@@H]4[C@@]5(C)C=C(O)C(=O)C(C)(C)[C@@H]5CC[C@@]4(C)[C@]3(C)CC[C@@]2(C(=O)O)CC[C@H]1C` the value was 4.60. Still for that read-out and setting: as for `CC(C)[C@H](NC(=O)[C@]12CCC(C)(C)C[C@@H]1[C@H]1CC[C@@H]3[C@@]4(C)C=C(O)C(=O)C(C)(C)[C@@H]4CC[C@@]3(C)[C@]1(C)CC2)C(=O)O`, the figure is 4.39; as for `CC1(C)CC[C@]2(C(=O)O)CC[C@]3(C)[C@H](CC[C@@H]4[C@@]5(C)C=C(O)C(=O)C(C)(C)[C@@H]5CC[C@]43C)[C@H]2C1`, 4.72. On the same count and under the same terms, for `COC(=O)[C@@H](NC(=O)[C@]12CCC(C)(C)C[C@@H]1C1=CC[C@@H]3[C@@]4(C)CCC(=O)C(C)(C)[C@@H]4CC[C@@]3(C)[C@]1(C)CC2)C(C)C` the value was 4.43. With `CC1(C)C(=O)C(O)=C[C@]2(C)[C@H]3C(=O)C[C@@H]4[C@H]5C[C@@](C)(C(=O)O)CC[C@]5(C)CC[C@@]4(C)[C@]3(C)CC[C@@H]12`, in test [1], the pIC50 is 4.80. Compared with the last molecule, the pIC50 is 0.37 log units higher. Take `C=C(C)[C@@H]1CC[C@]2(C)CC[C@]3(C)[C@@H](CC[C@@H]4[C@@](C)(CC(=O)O)[C@H](C(C)(C)C(=O)O)CC[C@]43C)[C@H]12`: the pIC50 is below 2.67 in test [2], below 2.67 in test [3], 4.60 in test [1] and 4.10 in test [4]. In turn, `C=C(C)[C@@H]1CC[C@]2(C=O)CC[C@]3(C)[C@@H](CC[C@@H]4[C@@]5(C)CCC(=O)C(C)(C)[C@@H]5CC[C@]43C)[C@H]12` gave a pIC50 in test [1] of 4.50. On the same count and under the same terms, as for `COC(=O)[C@@H](NC(=O)[C@]12CCC(C)(C)C[C@@H]1C1=CC[C@@H]3[C@@]4(C)CC[C@H](OC(C)=O)C(C)(C)[C@@H]4CC[C@@]3(C)[C@]1(C)CC2)C(C)C`, the figure is 4.67; as for `CC(C)[C@@H](NC(=O)[C@]12CCC(C)(C)C[C@@H]1[C@H]1CC[C@@H]3[C@@]4(C)C=C(O)C(=O)C(C)(C)[C@@H]4CC[C@@]3(C)[C@]1(C)CC2)C(=O)O`, 4.30. Molecule `CC(C)[C@@H](NC(=O)[C@]12CCC(C)(C)C[C@@H]1C1=CC[C@@H]3[C@@]4(C)CC[C@H](O)C(C)(C)[C@@H]4CC[C@@]3(C)[C@]1(C)CC2)C(=O)O` had a pIC50 in test [1] of 4.33.

In test [1], `CC(C)[C@H](NC(=O)[C@]12CCC(C)(C)C[C@@H]1C1=CC[C@@H]3[C@@]4(C)CCC(=O)C(C)(C)[C@@H]4CC[C@@]3(C)[C@]1(C)CC2)C(=O)O` had a pIC50 of 4.84. As for `CC(C)[C@@H](NC(=O)[C@]12CCC(C)(C)C[C@@H]1C1=CC[C@@H]3[C@@](C)(CC(=O)O)[C@H](C(C)(C)C(=O)O)CC[C@@]3(C)[C@]1(C)CC2)C(=O)O`, the pIC50 in test [2] is below 2.78; in test [3] it was below 2.78; in test [1], 4.06; in test [4], below 3.78. `CC1(C)CC[C@]2(C(=O)O)CC[C@]3(C)C(=CC[C@@H]4[C@@]5(C)CCC(=O)C(C)(C)[C@@H]5CC[C@]43C)[C@H]2C1` showed a pIC50 in test [1] of 4.56. For the molecule `C[C@H]1[C@H](C)CC[C@]2(C(=O)O)CC[C@]3(C)C(=CC[C@@H]4[C@@](C)(CC(=O)O)[C@H](C(C)(C)C(=O)O)CC[C@]43C)[C@H]12`, the pIC50 in test [2] was below 2.70; in test [3], below 2.70; in test [1], 4.75; in test [4], below 3.70.

In test [1], `COC(=O)[C@H](NC(=O)[C@]12CCC(C)(C)C[C@@H]1C1=CC[C@@H]3[C@@]4(C)CCC(=O)C(C)(C)[C@@H]4CC[C@@]3(C)[C@]1(C)CC2)C(C)C` gave a pIC50 of 4.38.

`C=C(C)[C@@H]1CC[C@@]2(C)[C@@H]1[C@@H]1CC[C@@H]3[C@@](C)(CC(=O)O)[C@H](C(C)(C)C(=O)O)CC[C@@]3(C)[C@]1(C)C[C@@H]2O`: the pIC50 in test [2] was below 2.69; in test [3] it was below 2.69; in test [1], 4.96; in test [4] it was below 3.69. On to `CC1(C)CC[C@]2(C(=O)O)CC[C@]3(C)C(=CC[C@@H]4[C@@](C)(CC(=O)O)[C@H](C(C)(C)C(=O)O)CC[C@]43C)[C@H]2C1`, for which the pIC50 was below 2.70 in test [2], below 2.70 in test [3], 5.41 in test [1] and below 3.70 in test [4]. `CC(=O)O[C@H]1CC[C@]2(C)[C@H]3CC=C4[C@@H]5CC(C)(C)CC[C@]5(C(=O)O)CC[C@@]4(C)[C@]3(C)CC[C@H]2C1(C)C` [ACETYL OLEANOLIC ACID]: the pIC50 in test [1] was below 3.70.
